The source of these data is patent publication US20250312349A1, “COMPOSITION AND METHODS OF TREATING INTRACELLULAR PATHOGEN INFECTION” (UNIVERSITY HOSPITALS CLEVELAND MEDICAL CENTER, priority 2024, published 2025).

The test system of this assay is LAMP1. Put plainly: Immunofluorescence of LAMP1 accumulation around parasites. In kind it is cell-based. The note with it: CHO cells and brain endothelial cells, 1 μM, 7 hours. As to the method:
FIGS. 3(A-L) illustrate images and graphs showing T. gondii killing induced by Src inhibition is mediated by autophagy. (A-C) CHO cells and primary brain endothelial cells expressing WT or DN EGFR were infected with RFP-T. gondii and treated with Saracatinib 1 μM for 5 hours before staining with an anti-LC3 antibody. Accumulation of LC3 around the parasites was assessed by confocal microscopy. Scale bar, 10 μm. (D-F) CHO cells and primary brain endothelial cells expressing WT or DN EGFR were infected with RFP-T. gondii and treated with Saracatinib 1 μM for 7 hours before staining with anti-LAMP1 antibody. Accumulation of LAMP1 around parasites was assessed as above. G-I) CHO cells and primary brain endothelial cells expressing WT or DN EGFR were transfected with control siRNA or ULK1 siRNA. Relative density of ULK1 was normalized to total Actin followed by normalization relative to Ctr siRNA. […] Cells were treated with or without Saracatinib and infected with RH T. gondii. Monolayers were examined at 24 h. […]
Mammalian cells were infected with RFP-T. gondii (RH) and fixed with 4% paraformaldehyde. […] LC3 and LAMP1 were evaluated for accumulation at 5- and 7 hours post-infection, respectively. […] Parasites were evaluated blindly in multiple random fields of view and 100 parasites were examined per group. […]

`CN1CCN(CCOc2cc(OC3CCOCC3)c3c(Nc4c(Cl)ccc5c4OCO5)ncnc3c2)CC1` [Saracatinib, N-(5-chloro-1,3-benzodioxol-4-yl)-7-(2-(4-methylpiperazin-1-yl)ethoxy)-5-(tetrahydro-2H-pyran-4-yloxy)quinazolin-4-amine]: the “accumulation of LAMP1 around intracellular parasites” value is listed as “accumulation of the lysosomal marker, LAMP1, was observed”.
